Data from patent US20020107193A1, “Therapeutic uses for IP3 receptor-mediated calcium channel modulators” (priority 2000, published 2002).
“Also recorded” adds a separate entry of the source.

What was measured:
[1] = test system: cardiac cells; settings: Hu et al., 1999, cited from earlier work
[2] = test system: NF-κB; assay: EMSA of NF-κB binding activity in cultured primary cortical neurons; format: cell-based, rat
Method: Cerebral cortices were removed from embryonic day 18 Sprague-Dawley rats (Harlan, Indianapolis, Ind.). Cells were dissociated as described previously (Mattson et al., 1995, J. Neurochem. 65:1740-1751.) and were seeded into polyethyleneimine-coated 60 mm culture dishes containing Eagle's Minimum Essential Medium supplemented with 26 mM NaHCO3, 40 mM glucose, 20 mM KCl, 1 mM sodium pyruvate, 10% (v/v) heat-inactivated fetal bovine serum (Sigma, St. Louis, Mo.), and 0.001% gentamycin sulfate. After a 3-5 h incubation period to allow for cell attachment, the medium was replaced with 2 ml of Neurobasal Medium with B27 supplements (GIBCO Life Technologies, Grand Island, N.Y.). […] Experimental treatments were performed on 7-to-9-day-old neuronal cultures in which there were approximately 5% contaminating glial cells.
(§1) Total cell extracts were prepared as described (Baeuerle and Baltimore, 1988, Cell 53:211-217). Briefly, cells were harvested, washed twice with ice-cold PBS and lysed for 30 min at 4° C. in Totex buffer (20 mM HEPES, pH 7.9, 350 mM NaC1, 20% glycerol, 1% NP-40, 1 mM MgC12, 0.5 mM EDTA, 0.1 mM EGTA, 5 mM DTT, 0.1% PMSF, 1% aprotinin, 4 μg/ml leupeptin). Samples were centrifuged at 14,000× g for 10 min and aliquots of supernatant were collected and stored at −70° C. until taken for assay. The protein content of the extract (supernatant) was measured by Bradford method (BIO-RAD Laboratories, Ercules, Calif., USA).
After 20 min at room temperature, reaction products were separated on a 7% non-denaturing polyacrylamide gel. Competition experiments were performed by incubating extracts with labeled oligonucleotide probe in the presence of 100-fold molar excess unlabeled NF-KB or CREB oligonucleotide. To characterize the NF-KB complexes, supershift assays were performed. Extracts were preincubated for 45 min at room temperature with antibodies recognizing either p50 or p65 sub-units of NF-κB (Santa Cruz Biotechnology, Santa Cruz, Calif.) or c-Fos (Oncogene Research Products, Cambridge, Mass.). The mixtures were further incubated with ^32P-labeled probe and resolved as described above. Radioactivity of dried gels was detected by exposure to Kodak X-Omat film and images on the developed film were scanned into a computer using a UMAX 1200s scanner. Densitometry was performed using Scion Image software (Scion Inc., Frederick, Md.). Paint Shop Pro software (JASC Inc. Minneapolis, Minn.) was used for preparation of the final figures.
(§2) The possible involvement of endoplasmic reticulum pools of intracellular calcium regulated by IP3 receptors in controlling basal levels of NF-κB was investigated using Xestospongin C (XeC) a specific membrane permeable modulator of IP3-mediated Ca^2+release (Gafni et al., 1997, Neuron 19:723-733; Hu et al., 1999, J. Biol. Chem. 274:33995-33998), and thapsigargin (Tg), a specific inhibitor of ER calcium/ATPase (Thastrup et al., 1990, Proc. Natl. Acad. Sci. USA 87:2466-2470; Davidson and Varhol, 1995, J. Biol. Chem. 270:11731-11734.). Cultured primary cortical neurons were treated with either 1 μM XeC, 100 nM Tg or vehicle for 6 h and protein extracts were analyzed for NF-κB binding activity by EMSA electrophoresis.

[3] = test system: CREB; assay: EMSA of CREB binding activity in cultured primary cortical neurons; format: cell-based, rat
Method: Cerebral cortices were removed from embryonic day 18 Sprague-Dawley rats (Harlan, Indianapolis, Ind.). Cells were dissociated as described previously (Mattson et al., 1995, J. Neurochem. 65:1740-1751.) and were seeded into polyethyleneimine-coated 60 mm culture dishes containing Eagle's Minimum Essential Medium supplemented with 26 mM NaHCO3, 40 mM glucose, 20 mM KCl, 1 mM sodium pyruvate, 10% (v/v) heat-inactivated fetal bovine serum (Sigma, St. Louis, Mo.), and 0.001% gentamycin sulfate. After a 3-5 h incubation period to allow for cell attachment, the medium was replaced with 2 ml of Neurobasal Medium with B27 supplements (GIBCO Life Technologies, Grand Island, N.Y.). Previous observations have shown that greater than 80% of the cells that attach in the first few hours after plating will survive longer than 7 days in Neurobasal Medium with no additional neurotrophic factors. Experimental treatments were performed on 7-to-9-day-old neuronal cultures in which there were approximately 5% contaminating glial cells.
as §1, with “USA). […]” for “USA).”
After 20 min at room temperature, reaction products were separated on a 7% non-denaturing polyacrylamide gel. […] Radioactivity of dried gels was detected by exposure to Kodak X-Omat film and images on the developed film were scanned into a computer using a UMAX 1200s scanner. […]
as §2

[4] = test system: [Ca^2+]i; assay: Intracellular calcium increase caused by glutamate in neurons; format: cell-based; settings: XeC treatment; data not shown
Excerpt: Therefore, all inducers of NFκB tested here have in common the ability to initiate calcium release through ER IP3 receptors, either through increasing intracellular calcium, activating production of IP3, or both.

[5] = test system: immune cell line; assay: Proinflammatory cytokine production in an immune cell line; format: cell-based

In the case of `C1CCC[C@H]2CCCN3CC[C@@H](CCCCCC[C@@H]4CCCN5CC[C@@H](CC1)O[C@@H]45)O[C@@H]23` [XeC, Xestospongin C], the “frequency of calcium oscillations” value [1] is listed as “decreased the frequency”, the NF-κB activity ([1]; histamine stimulation) is listed as “parallel decrease” and the “effect on TNFα-induced NF-κB activation” value ([2]; 1 μM XeC 30 min prior to 100 ng/ml TNFα for 6 h) is listed as “completely abolished; also recorded: significantly inhibited”. The “effect on thapsigargin-induced elevation in NF-κB binding” value ([2]; 1 μM XeC pretreatment, 100 nM Tg, 6 h) was “completely abolished the elevation”, the “effect on glutamate-induced elevation in NF-κB binding” value ([2]; 1 μM XeC pretreatment, 20 μM glutamate, 6 h) was “completely abolished the elevation; also recorded: NF-κB binding below that of control; also recorded: totally abolish this induction” and the “basal NF-κB binding activity relative to control levels” value ([2]; cultured primary cortical neurons, 6 h, 1 μM XeC or 100 nM Tg, EMSA) was “statistically significant (p<0.05) reduction; also recorded: can inhibit basal levels of NF-κB binding”. For the same molecule, the “binding activity of CREB, agent alone” value ([3]; cortical neurons, XeC 30 min pretreatment, 100 ng/ml TNFα 6 h, FIG. 2a) was “neither TNFα nor XeC alone affected the binding activity of CREB”, the CREB binding activity ([3]; cultured primary cortical neurons, 6 h, 1 μM XeC or 100 nM Tg, data not shown) was “slightly augmented CREB binding activity; however, this was not statistically significant” and the “increase in [Ca^2+]i caused by glutamate” value [4] was “did not erase the increase”. The proinflammatory cytokine production [5] was “inhibited”.
